According to patent publication US10782295B2, “Cysteine-reactive ligand discovery in proteomes” (THE SCRIPPS RESEARCH INSTITUTE, priority 2013, dated 2020):

System: AKT1/2/3
Test: competitive isoTOP-ABPP, concentration-dependent HNE
Type: binding, human
Conditions: MDA-MB-231 proteome, read-out: IC50 for inhibition of cysteine (C311) in AKT1/2/3
Method: The MDA-MB-231 cell proteome was treated with varying concentrations of HNE (5, 10, 50, 100 and 500 μM) for 60 min and then the IA-labeling profile of each reaction was quantitatively compared to a DMSO-control sample by isoTOP-ABPP.
By combining the R values at all 5 HNE concentrations, we could extrapolate IC50 values for […] of IA probe-labeling for ˜700 of the 1100 cysteines (FIG. 3a).
HNE was purchased from EMD biosciences, 15d-PGJ2 was purchased from Cayman Chemicals and 2-HD was purchased from Santa Cruz Biotechnology. Proteome samples were diluted to a 4 mg protein/mL solution in PBS. […]
IA-probe labeled peptides were identified by SEQUEST2 and DTASelect3, and the quantification of heavy/light ratios (isoTOP-ABPP ratios, R) was performed by an in-house software (CIMAGE) as previously described. The software was advanced to be able to detect and quantify cases where near complete […] blockade of IA-probe labeling was achieved (e.g., very small or no light peak) and assign an empirical ratio cut-off of 15 to each of such cases. […] In the case of probe-modified peptides that were sequenced in one, but not the other runs, a featured algorithm of CIMAGE was utilized to identify the corresponding peak pairs in the runs without the SEQUEST identification and obtain quantification as previously described. […]

With `CCCCCC(O)/C=C/C=O` (stereo not shown) [4-HNE, 4-Hydroxynonenal] as the compound, how does the IC50 read?
Its IC50 is 60 µM.
